Experimental data: patent US10955409B2, “Method for the identification of sensory neuron subtypes in ex vivo preparations” (AnaBios Corporation, priority 2017, dated 2021)

Tested on: Aδ- and C-type neurons (human DRG neurons)
Experiment: Electric field stimulation (EFS) live cell calcium imaging of human DRG neurons
Format: cell-based
Conditions: high voltage 15V/cm supra-threshold stimulation
Description: DRGs from the first thoracic vertebra (T1) through the first sacral vertebra (S1) were used in the present study. Human DRG neurons where isolated from organ donors for which full legal and ethical consent had been obtained. The DRGs were stripped of connective tissue and enzymatically digested at 37° C. for 2 h using AnaBios' proprietary enzyme mixture. Samples were then centrifuged for 2 min at 200×g, supernatant was gently removed, and tissue was washed 4 times, followed by resuspension in DMEM/F12 (Lonza) containing 1% horse serum (Thermo Fisher Scientific). Ganglia were mechanically dissociated by gentle trituration through the fire-polished tip of a sterile glass Pasteur pipette. […] Cells were maintained in culture at 37° C. with 5% CO2 in DMEM/F12 supplemented with 10% horse serum (Thermo Fisher Scientific), 2 mM glutamine, 25 ng/mL hNGF (Cell Signaling Technology, Danvers, Mass.), 25 ng/mL GDNF (Peprotech), and penicillin/streptomycin (Thermo Fisher Scientific). Half of the culture media was replaced with fresh media every 3 days.
Cells were loaded with 3 M Fluo-8-AM (AAT Bioquest) containing 0.1% Pluronic F-127 (Sigma) for 20 min. at room temperature. Extracellular solution contained in (mM): 145 NaCl, 3 KCl, 2 CaCl2), 1 MgCl2, 10 HEPES, 10 glucose adjusted to pH 7.4 with NaOH. […]

For `CCN(CC)CC(=O)Nc1c(C)cccc1C` [lidocaine], the “sensitivity of the maximal response to EFS to lidocaine” value was “exhibited sensitivity”.
